{"source": "paper PMC10536928", "about": "“Discovery of New Pyrrolo[2,3-d]pyrimidine Derivatives as Potential Multi-Targeted Kinase Inhibitors and Apoptosis Inducers” (Pharmaceuticals, 2023)", "key": {"[1]": {"tested_on": "HepG2 cells", "experiment": "Cell cycle analysis (propidium iodide flow cytometry)", "type": "cell-based", "text": "The objective of the study was to evaluate the influence of the synthesized compounds on the progression of the cell cycle in HepG2 cells.\nThe observed modifications in cell cycle distribution following drug treatment indicate a potential mechanism of action involving cell cycle arrest, a commonly employed therapeutic strategy for suppressing cancer cell proliferation. By impeding cells in the G0–G1 phase, drugs can effectively prevent them from proceeding to the S phase, where DNA replication takes place, and ultimately lead to cell death. […] The cell cycle distribution index (CDI) is a metric that quantifies the rate of cell proliferation and can be derived from the percentage of cells in each phase of the cell cycle. The CDI was calculated using the formula: CDI = (G2/M + S)/[…], wherein G0/G1, S, and G2/M denote the percentages of cells in the respective phases of the cell cycle. The CDI values for the control and compound 5k were determined to be 1.35 and 1.03, respectively.\nTo investigate the impact of the synthesized compound 5k on cell cycle progression, the ab139418 Propidium Iodide flow cytometry kit/BD was utilized. Initially, HepG2 cells were seeded in triplicate at a density of 2 × 10^5 cells per well in 6-well plates and incubated for 24 h. […] Following treatment, the HepG2 cells were fixed with 70% ethanol and incubated for 12 h at 4 °C. Subsequently, the wells were washed with cold PBS, treated with RNase A (100 µL) at 37 °C for 30 min, and stained with Propidium Iodide (400 µL) in a dark environment at room temperature for another 30 min. The labeled cells were then analyzed using the Epics XLMCL™ flow cytometer equipment (Beckman Coulter, Apeldoorn, the Netherlands). Finally, the experimental results were analyzed using Turku Centre for Biotechnology software version 2.5.1 (Turku, Finland)."}, "[2]": {"tested_on": "epithelioid cervix carcinoma (HeLa)", "experiment": "MTT cytotoxicity assay", "type": "cell-based", "settings": "Homo sapiens, 24 h exposure, mean ± SD of triplicate"}, "[3]": {"tested_on": "four different cancer cell lines (MCF-7, HepG2, MDA-MB-231, HeLa)", "experiment": "MTT cytotoxicity assay, range over the four cell lines", "type": "cell-based", "settings": "read-out: IC50 values, range over the tested cancer cell lines", "description": "The cytotoxic effects of compounds 5a–m were evaluated using a standard MTT method against four different cancer cell lines, namely mammary gland cancer (MCF-7), hepatocellular carcinoma (HepG2), breast cancer (MDA-MB-231), and epithelioid cervix carcinoma (HeLa). […] These findings highlight the potential of these compounds as candidates for further development as cytotoxic agents for cancer treatment.\nThe cytotoxicity of compounds 5a–m was assessed against various cancer cell lines and one normal cell line using the described methodology. In brief, the cells were cultured in 96-well plates with a density of 1.0 × 10^4 cells per well, supplemented with 10% fetal bovine serum (FBS), an antibiotic cocktail, and RPMI 11,640 medium. The cells were then incubated for 48 h with 5% CO2 and 100% relative humidity at 37 °C. […] Following treatment, the addition of 20 µL of MTT solution was added to each well and incubation was continued for another 4 h, after which dimethyl sulfoxide (100 µL) was used to dissolve the resulting insoluble formazan. The absorbance was measured at 570 nm using a BioTek EXL 800 plate reader (Agilent Technologies, CA, USA). By comparing the absorbance of treated samples to untreated samples, the relative cell viability percentage was calculated as (A570 of treated samples/A570 of untreated sample) × 100. The IC50 values were determined based on triplicate measurements."}, "[4]": {"target": "T1, CDK2 (Homo sapiens, UniProt P24941)", "T1 construct": "purchased", "experiment": "In vitro protein kinase inhibition assay (ELISA kit)", "type": "biochemical", "settings": "triplicate", "description": "(§1) In accordance with the documented procedures, fifteen derivatives of the synthesized compounds were evaluated for their inhibitory effects on EGFR, VEGFR-2, Her2, and CDK2 using specific human ELISA kits (Enzyme-Linked Immunosorbent Assay) designed for each respective kinase enzyme. Initially, various concentrations of the synthesized compounds were combined with specific antibodies for each enzyme in individual wells of a 96-well plate, followed by incubation at room temperature for 2.5 h. Subsequently, the plate was washed, and a biotin antibody (100 µL), prepared in-house, was added and allowed to incubate at ambient temperature for 1 h. After another washing step, a solution of streptavidin (100 µL) was introduced to each well and left for 45 min at room temperature. Following a third round of washing, a TMB Substrate (100 µL) reagent was applied to all wells and incubated for 30 min at room temperature. Finally, the reaction was terminated by adding 50 µL of a stop solution, and the absorbance was directly measured at 450 nm. A standard curve was constructed, illustrating the relationship between concentration (X-axis) and absorbance (Y-axis)."}, "[5]": {"target": "T2, VEGFR2 (Homo sapiens, UniProt P35968)", "T2 construct": "purchased", "T2 sequence (P35968 20-1356)": "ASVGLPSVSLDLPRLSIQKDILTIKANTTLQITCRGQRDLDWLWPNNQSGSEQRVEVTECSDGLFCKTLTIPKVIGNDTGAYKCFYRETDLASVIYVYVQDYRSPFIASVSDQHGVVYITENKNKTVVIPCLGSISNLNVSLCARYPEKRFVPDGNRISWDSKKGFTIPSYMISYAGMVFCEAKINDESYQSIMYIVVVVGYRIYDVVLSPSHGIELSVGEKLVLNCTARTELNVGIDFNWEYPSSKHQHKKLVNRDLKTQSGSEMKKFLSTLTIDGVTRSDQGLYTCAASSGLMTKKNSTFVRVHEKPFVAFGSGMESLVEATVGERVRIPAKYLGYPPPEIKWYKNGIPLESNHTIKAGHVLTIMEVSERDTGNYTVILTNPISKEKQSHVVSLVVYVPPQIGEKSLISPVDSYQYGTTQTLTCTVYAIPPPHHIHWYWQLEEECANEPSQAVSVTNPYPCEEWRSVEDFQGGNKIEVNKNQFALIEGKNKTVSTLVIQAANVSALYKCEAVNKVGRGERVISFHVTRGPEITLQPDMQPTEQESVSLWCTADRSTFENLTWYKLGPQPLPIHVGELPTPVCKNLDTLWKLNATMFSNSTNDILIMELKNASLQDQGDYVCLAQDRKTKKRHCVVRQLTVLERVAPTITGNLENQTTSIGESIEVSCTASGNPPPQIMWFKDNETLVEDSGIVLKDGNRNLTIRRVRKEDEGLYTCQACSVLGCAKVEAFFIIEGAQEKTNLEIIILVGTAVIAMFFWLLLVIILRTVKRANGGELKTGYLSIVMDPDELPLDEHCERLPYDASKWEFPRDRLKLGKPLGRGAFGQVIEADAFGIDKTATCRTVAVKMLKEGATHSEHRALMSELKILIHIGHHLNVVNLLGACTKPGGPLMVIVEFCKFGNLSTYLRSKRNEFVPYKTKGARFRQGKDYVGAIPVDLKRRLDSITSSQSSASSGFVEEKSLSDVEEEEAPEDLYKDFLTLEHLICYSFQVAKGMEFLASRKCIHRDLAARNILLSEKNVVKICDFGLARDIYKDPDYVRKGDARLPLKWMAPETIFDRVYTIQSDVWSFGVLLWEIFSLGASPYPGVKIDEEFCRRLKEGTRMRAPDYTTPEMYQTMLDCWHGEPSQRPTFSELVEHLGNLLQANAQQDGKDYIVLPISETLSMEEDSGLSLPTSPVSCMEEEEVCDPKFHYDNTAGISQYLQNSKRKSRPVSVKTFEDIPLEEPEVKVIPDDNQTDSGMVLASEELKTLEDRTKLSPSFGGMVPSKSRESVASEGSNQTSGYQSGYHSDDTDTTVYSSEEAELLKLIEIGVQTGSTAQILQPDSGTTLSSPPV", "experiment": "In vitro protein kinase inhibition assay (ELISA kit)", "type": "biochemical", "settings": "triplicate", "description": "as §1"}, "[6]": {"target": "T3, Her2 (Homo sapiens, UniProt P04626)", "T3 construct": "purchased", "T3 sequence (P04626 23-1255)": "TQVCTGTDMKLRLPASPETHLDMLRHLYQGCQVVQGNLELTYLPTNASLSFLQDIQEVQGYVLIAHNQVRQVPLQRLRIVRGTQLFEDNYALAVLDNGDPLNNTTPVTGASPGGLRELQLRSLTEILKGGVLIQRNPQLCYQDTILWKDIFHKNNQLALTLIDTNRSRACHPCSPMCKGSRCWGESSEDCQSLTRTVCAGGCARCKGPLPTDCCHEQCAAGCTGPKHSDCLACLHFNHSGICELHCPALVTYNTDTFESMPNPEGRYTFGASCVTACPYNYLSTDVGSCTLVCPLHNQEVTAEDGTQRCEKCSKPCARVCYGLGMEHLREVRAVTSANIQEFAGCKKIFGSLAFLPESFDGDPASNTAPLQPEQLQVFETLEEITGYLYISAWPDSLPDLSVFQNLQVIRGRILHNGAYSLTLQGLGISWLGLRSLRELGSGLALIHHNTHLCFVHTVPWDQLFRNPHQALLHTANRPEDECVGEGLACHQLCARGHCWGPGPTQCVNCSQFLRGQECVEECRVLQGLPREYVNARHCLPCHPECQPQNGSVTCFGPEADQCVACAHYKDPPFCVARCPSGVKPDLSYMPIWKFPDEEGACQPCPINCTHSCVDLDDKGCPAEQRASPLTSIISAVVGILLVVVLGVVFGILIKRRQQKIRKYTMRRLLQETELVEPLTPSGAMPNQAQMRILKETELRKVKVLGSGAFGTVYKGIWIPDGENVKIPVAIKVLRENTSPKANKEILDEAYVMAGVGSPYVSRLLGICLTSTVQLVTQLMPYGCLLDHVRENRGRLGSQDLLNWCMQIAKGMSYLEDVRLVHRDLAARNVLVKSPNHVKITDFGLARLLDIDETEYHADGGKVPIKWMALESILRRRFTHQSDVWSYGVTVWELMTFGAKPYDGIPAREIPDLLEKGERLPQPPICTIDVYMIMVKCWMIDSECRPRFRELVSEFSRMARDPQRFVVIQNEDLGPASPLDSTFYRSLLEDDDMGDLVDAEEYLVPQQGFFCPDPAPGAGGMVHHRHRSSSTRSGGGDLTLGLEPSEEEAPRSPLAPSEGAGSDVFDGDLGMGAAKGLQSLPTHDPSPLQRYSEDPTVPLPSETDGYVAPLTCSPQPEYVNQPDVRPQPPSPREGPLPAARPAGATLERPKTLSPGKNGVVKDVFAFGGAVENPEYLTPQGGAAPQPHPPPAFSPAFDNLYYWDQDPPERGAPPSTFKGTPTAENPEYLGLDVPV", "experiment": "In vitro protein kinase inhibition assay (ELISA kit)", "type": "biochemical", "settings": "triplicate", "description": "as §1"}, "[7]": {"target": "T4, EGFR (Homo sapiens, UniProt P00533)", "T4 construct": "purchased", "T4 sequence (P00533 25-1210)": "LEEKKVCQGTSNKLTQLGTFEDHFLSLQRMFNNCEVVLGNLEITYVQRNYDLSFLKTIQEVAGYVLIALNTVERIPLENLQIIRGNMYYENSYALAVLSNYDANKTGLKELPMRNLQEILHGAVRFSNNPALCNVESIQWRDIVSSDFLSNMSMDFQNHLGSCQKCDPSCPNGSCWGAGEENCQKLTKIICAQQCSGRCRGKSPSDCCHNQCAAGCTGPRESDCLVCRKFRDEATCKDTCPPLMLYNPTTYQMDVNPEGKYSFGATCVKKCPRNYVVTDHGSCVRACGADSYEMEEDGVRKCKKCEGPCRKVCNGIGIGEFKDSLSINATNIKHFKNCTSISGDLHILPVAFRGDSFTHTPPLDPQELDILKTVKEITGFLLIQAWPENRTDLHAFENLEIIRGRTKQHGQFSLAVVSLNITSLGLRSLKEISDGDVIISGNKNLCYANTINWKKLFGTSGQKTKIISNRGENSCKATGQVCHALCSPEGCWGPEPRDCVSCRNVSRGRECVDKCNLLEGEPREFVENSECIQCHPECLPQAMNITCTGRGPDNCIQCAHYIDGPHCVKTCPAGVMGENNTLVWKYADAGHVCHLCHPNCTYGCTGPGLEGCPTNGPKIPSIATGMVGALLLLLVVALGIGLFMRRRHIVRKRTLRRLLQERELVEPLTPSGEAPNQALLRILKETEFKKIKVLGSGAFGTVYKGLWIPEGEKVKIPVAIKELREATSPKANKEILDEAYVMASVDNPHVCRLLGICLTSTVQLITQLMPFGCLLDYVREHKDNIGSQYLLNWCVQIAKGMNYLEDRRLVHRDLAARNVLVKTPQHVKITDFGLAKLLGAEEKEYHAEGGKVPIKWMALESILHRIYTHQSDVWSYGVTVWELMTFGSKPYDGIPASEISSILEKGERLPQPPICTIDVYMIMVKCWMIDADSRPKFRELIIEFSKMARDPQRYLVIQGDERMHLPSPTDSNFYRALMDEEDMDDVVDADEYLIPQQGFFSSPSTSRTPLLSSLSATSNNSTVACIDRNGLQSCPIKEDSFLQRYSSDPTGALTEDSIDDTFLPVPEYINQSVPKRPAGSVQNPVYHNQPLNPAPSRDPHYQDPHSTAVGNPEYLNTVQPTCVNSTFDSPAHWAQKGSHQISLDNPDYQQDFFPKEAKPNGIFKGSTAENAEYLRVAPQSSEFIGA", "experiment": "In vitro protein kinase inhibition assay (ELISA kit)", "type": "biochemical", "settings": "triplicate", "description": "as §1"}, "[8]": {"tested_on": "HepG2 cells", "experiment": "Annexin-V/propidium iodide double staining assay", "type": "cell-based", "settings": "compound at its IC50, 24 h", "description": "To investigate the type of cell death induced by compound 5k, flow cytometry analysis was conducted. […] Subsequently, the cells were double stained with Annexin V and propidium iodide (PI). […] Apoptosis is a process of programmed cell death that occurs naturally in the body, while necrosis is a type of cell death that occurs due to damage or injury to the cell. […] In the early stage of the experiment, the percentage of apoptotic cells was 0.51% in the control group and 15.63% in the 5k treated group. In the late stage, the percentage of apoptotic cells was 0.29% in the control group and 9.74% in the 5k treated group.\nIn contrast, the percentage of necrotic cells was also higher in the 5k treated group compared to the control group. The percentage of necrotic cells was 1.58% in the control group and 4.17% in the 5k treated group. […] Further studies are needed to determine the underlying mechanisms of this effect and to assess the potential therapeutic applications of compound 5k in the treatment of diseases involving abnormal cell death.\nTo investigate the apoptotic effects of the synthesized compound 5k, HepG2 cells were cultured in triplicate at a density of 2.0 × 10^5 cells per well. Subsequently, the cells were treated with the selected compounds at their respective IC50 values determined by the MTT assay. After 24 h, the cells were detached using trypsin, collected, and then centrifuged. Following two washes with PBS, the cells were resuspended in 0.1 mL of binding buffer. Dual staining was performed by adding Annexin V-FITC (5 µL) and propidium iodide (5 µL) to the cell suspension, which was then incubated in the dark for 15 min at room temperature. Flow cytometry analysis was performed using the Epics XL-MCL™ flow cytometry equipment (Beckman Coulter, Apeldoorn, The Netherlands) with an excitation wavelength of 488 nm and an emission wavelength of 530 nm. Finally, the experimental results were analyzed using flowing “Turku Centre for Biotechnology” software, version 2.5.1 (Turku, Finland)."}}}
{"smiles": "O=C(N/N=C/c1ccc(Cl)c(Cl)c1)c1ccc(Nc2ncnc3[nH]ccc23)cc1", "note": "[Compound 5k, (E)-4-((7H-Pyrrolo[2,3-d]pyrimidin-4-yl)amino)-N’-(3,4-dichlorobenzylidene)benzohydrazide]", "values": [{"measurement": "Cell Cycle Distribution Index (CDI)", "setting": "[1]; CDI = (G2/M + S)/G0/G1, control 1.35", "value": 1.03}, {"measurement": "DNA Content (%) %G2/M", "setting": "[1]; compound at its IC50, 24 h, control 19.38", "value": 18.3, "unit": "%"}, {"measurement": "DNA Content (%) %S", "setting": "[1]; compound at its IC50, 24 h, control 36.76", "value": 32.52, "unit": "%"}, {"measurement": "DNA Content (%) %G0–G1", "setting": "[1]; compound at its IC50, 24 h, control 43.86", "value": 49.18, "unit": "%"}, {"measurement": "IC50", "setting": "[2]", "value": "57.8 ± 3.1", "unit": "µM"}, {"measurement": "IC50", "setting": "[3]", "value": "29000 to 59000", "unit": "nM"}, {"measurement": "IC50", "setting": "[4]", "value": 204, "unit": "nM"}, {"measurement": "IC50", "setting": "[5]", "value": 136, "unit": "nM"}, {"measurement": "IC50", "setting": "[6]", "value": 40, "unit": "nM"}, {"measurement": "IC50", "setting": "[7]", "value": 79, "unit": "nM"}, {"measurement": "Apoptosis Late", "setting": "[8]; control 0.29", "value": 9.74, "unit": "%"}, {"measurement": "Apoptosis Early", "setting": "[8]; control 0.51", "value": 15.63, "unit": "%"}, {"measurement": "Necrosis", "setting": "[8]; control 1.58", "value": 4.17, "unit": "%"}]}
